According to PubChem BioAssay (NCI):
Values joined by “and” are separate entries in the source; they are usually repeats but may differ in a detail not shown here. Identical values can stand only once.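 Grown in 96-well plates, cells were treated for 48 hours with each compound at five concentrations. Insufficient inhibition: endpoint recorded as highest concentration tested. Here, GI50 denotes the concentration required for 50% inhibition of growth. TGI is the concentration that stops growth completely.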

Legend:
Experiment in all cases: NCI-60 cell line screen, 48 h
UACC-257 melanoma = tested on: UACC-257 melanoma
SN12C renal = tested on: SN12C renal
SR leukemia = tested on: SR leukemia
SK-MEL-5 melanoma = tested on: SK-MEL-5 melanoma
MCF7 breast = tested on: MCF7 breast
KM12 colon = tested on: KM12 colon
NCI-H23 lung = tested on: NCI-H23 lung
ACHN renal = tested on: ACHN renal
NCI-H226 lung = tested on: NCI-H226 lung
SK-OV-3 ovarian = tested on: SK-OV-3 ovarian

Row | SMILES | TGI (UACC-257 melanoma) | TGI (SN12C renal) | TGI (SR leukemia) | TGI (SK-MEL-5 melanoma) | TGI (MCF7 breast) | TGI (KM12 colon) | TGI (NCI-H23 lung) | TGI (ACHN renal) | TGI (NCI-H226 lung) | TGI (SK-OV-3 ovarian) | GI50 (KM12 colon) | GI50 (UACC-257 melanoma) | GI50 (SN12C renal) | GI50 (SR leukemia) | GI50 (SK-OV-3 ovarian) | GI50 (SK-MEL-5 melanoma) | GI50 (MCF7 breast) | GI50 (NCI-H23 lung) | GI50 (ACHN renal) | GI50 (NCI-H226 lung)
1 | COC(=O)NN(C(=O)OC)c1c(-c2ccccc2)nc(SC)n1N | > 100 µM | > 100 µM | > 100 µM | > 100 µM | > 100 µM | > 100 µM | > 100 µM | > 100 µM | > 100 µM | – | – | – | – | – | – | – | – | – | – | –
2 | C=C1[C@@H](O)C[C@@]23CC[C@@H]4[C@@]5(C)CC[C@@H](OC(C)=O)C(C)(C)[C@@H]5C[C@@H](OC5OC(COC(C)=O)C(O)C(O)C5O)[C@@]4(C)C2=CC[C@H]3[C@H]1C (stereo partly specified) | 26 µM | 21 µM | 5.07 µM | 12.3 µM | 7.77 µM | 8.16 µM | 26.5 µM | 21.9 µM | 17.4 µM | 26.1 µM | – | – | – | – | – | – | – | – | – | –
3 | COc1cc2c(cc1OC)C1c3ccccc3CCN1CC2 (stereo unspecified) | > 100 µM | > 100 µM | > 100 µM | > 100 µM | > 100 µM | > 100 µM | > 100 µM | > 100 µM | 96.1 µM | > 100 µM | – | – | – | – | – | – | – | – | – | –
4 | C[n+]1c(-c2ccccc2)cc2/c(=C\c3ccc([N+](=O)[O-])cc3)c3ccccc3n21 | > 60.8 µM | > 33.6 µM | > 41.7 µM | > 19.7 µM | > 94.1 µM | 17.8 µM | 13.6 µM | > 38.5 µM | 25.4 µM | 25.4 µM | – | – | – | – | – | – | – | – | – | –
5 | COc1cc(C2c3cc4c(cc3OC(NN=C(C)C)C2C)OCO4)cc(OC)c1O (stereo unspecified) | > 100 µM | > 100 µM | 16.5 µM | 38.1 µM | > 100 µM | > 100 µM | > 100 µM | – | > 100 µM | – | – | – | – | – | – | – | – | – | – | –
6 | C=C1C(=O)OC2/C=C(\CO)C(OC(C)=O)CC(O)/C(C)=C/C(OC(=O)C(C)CC)C12 (stereo unspecified) | 28.9 µM and 38.5 µM | 36 µM and 36.6 µM | 39.2 µM | 33 µM and 30.9 µM | 25.8 µM | 32.5 µM and > 100 µM | 32.1 µM and 59.9 µM | 56.7 µM and 72.7 µM | 59.6 µM | > 100 µM | 17.5 µM and 35.2 µM | – | – | – | – | – | – | – | – | –
7 | CC1(C)O[C@@H]2COC(=O)[C@@H]2O1 | > 100 µM | > 100 µM | > 100 µM | > 100 µM | > 100 µM | > 100 µM | > 100 µM | > 100 µM | > 100 µM | > 100 µM | – | – | – | – | – | – | – | – | – | –
8 | CC(=O)N/N=C1/NN(C(C)=O)C2(S1)C(=O)Nc1ccc(Br)cc12 (stereo unspecified) | > 100 µM | > 100 µM | > 100 µM | > 100 µM | > 100 µM | > 100 µM | > 100 µM | > 100 µM | > 100 µM | – | – | – | – | – | – | – | – | – | – | –
9 | N#Cc1nc(-c2cc([N+](=O)[O-])cc([N+](=O)[O-])c2)oc1N | > 10 µM | > 10 µM | > 10 µM | > 10 µM | > 10 µM | > 10 µM | > 10 µM | > 10 µM | > 10 µM | > 10 µM | – | – | – | – | – | – | – | – | – | –
10 | Cc1cc(C)c2c(=O)n(CN3CC4Nc5ccccc5C4C3)sc2n1 (stereo unspecified) | 32.2 µM | > 100 µM | > 100 µM | > 100 µM | > 100 µM | > 100 µM | 47.6 µM | 33.8 µM | 81.1 µM | > 100 µM | – | – | – | – | – | – | – | – | – | –
11 | CCCCn1c2c(n(CCCC)c1=S)-c1c(n(CCCC)c(=S)n1CCCC)S[Se][Se]S2 | 30.8 µM | 99.1 µM | > 100 µM | 19.6 µM | > 100 µM | > 53.5 µM | 41.5 µM | 14.2 µM | 49.4 µM | 55.1 µM | – | – | – | – | – | – | – | – | – | –
12 | CC(C)=C[C@@H]1C[C@H](n2cc(C)c(=O)[nH]c2=O)ON1CCO | > 100 µM | > 100 µM | > 100 µM | > 100 µM | > 100 µM | > 100 µM | – | > 100 µM | > 100 µM | > 100 µM | – | – | – | – | – | – | – | – | – | –
13 | Cc1ccc(S(=O)(=O)N2CCSCCSCCSCCSCC2)cc1 | > 100 µM | > 96.8 µM | > 100 µM | > 86.9 µM | > 100 µM | > 100 µM | > 92.6 µM | > 100 µM | > 82.2 µM | 46 µM | – | – | – | – | – | – | – | – | – | –
14 | COc1ccc(N2C(=O)c3c4c(c5c([nH]c6ncccc65)c3C2=O)CCC(C(C)(C)C)C4)cc1 (stereo unspecified) | > 100 µM | > 100 µM | > 100 µM | > 100 µM | > 100 µM | > 100 µM | > 100 µM | > 100 µM | > 100 µM | > 100 µM | – | – | – | – | – | – | – | – | – | –
15 | O=C1NCCCc2nonc21 | > 100 µM | > 100 µM | > 100 µM | > 100 µM | > 100 µM | > 100 µM | > 100 µM | > 100 µM | > 100 µM | > 100 µM | – | – | – | – | – | – | – | – | – | –
16 | Oc1ccc(-c2nnc3sc(-c4ccc(F)cc4)nn23)cc1 | > 100 µM | > 100 µM | > 100 µM | > 100 µM | > 100 µM | > 100 µM | 84.9 µM | > 100 µM | > 100 µM | > 100 µM | > 100 µM | > 100 µM | 42.5 µM | 15.1 µM | 34.9 µM | 70.4 µM | 59.7 µM | 27.8 µM | 24.7 µM | 49.6 µM
17 | O=C(NC(Cc1c[nH]c2ccccc12)C(=O)O)/C(=C/c1ccccc1O)NC(=O)c1ccccc1 (stereo unspecified) | > 100 µM | 63.9 µM | > 100 µM | > 100 µM | 24.9 µM | > 100 µM | > 100 µM | 33.3 µM | 61.5 µM | 56.7 µM | – | – | – | – | – | – | – | – | – | –
18 | O=[N+]([O-])C(=C(N1CCCCC1)N1CCCCC1)/C(Cl)=C(\Cl)Br | 61.6 µM | > 100 µM | 30.9 µM | 46 µM | 88.9 µM | 54.5 µM | 41.2 µM | 79.5 µM | 44.6 µM | > 100 µM | – | – | – | – | – | – | – | – | – | –
19 | COC(=O)c1ccccc1/C=C1/Cc2ccccc2C1=O | 68.1 µM | 36.5 µM | > 100 µM | 62.8 µM | > 100 µM | 96.5 µM | > 100 µM | > 100 µM | > 100 µM | > 100 µM | – | – | – | – | – | – | – | – | – | –
20 | C/C(N=Nc1nc2ccccc2s1)=C1/C=CC=CN1O | > 100 µM | > 100 µM | > 100 µM | > 100 µM | 60.5 µM | > 100 µM | > 100 µM | > 100 µM | > 100 µM | > 100 µM | – | – | – | – | – | – | – | – | – | –
